By IC50 is commonly meant the midpoint of a concentration-inhibition curve.

The target of the assay is T1, Inositol monophosphatase 1 (Bos taurus, UniProt P20456).
T1 sequence (P20456 whole entry): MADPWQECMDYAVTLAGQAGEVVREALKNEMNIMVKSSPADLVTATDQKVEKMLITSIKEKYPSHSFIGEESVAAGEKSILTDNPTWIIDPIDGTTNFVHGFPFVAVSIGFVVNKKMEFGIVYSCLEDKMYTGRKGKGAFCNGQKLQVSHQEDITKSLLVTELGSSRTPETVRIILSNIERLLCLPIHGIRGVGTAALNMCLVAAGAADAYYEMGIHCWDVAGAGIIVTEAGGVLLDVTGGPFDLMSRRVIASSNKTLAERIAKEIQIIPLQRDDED
Briefly: Concentration required for 50% inhibition of Inositol monophosphatase.
Consider `O=P(O)(O)C(O)(Cc1ccc(Cl)cc1Cl)P(=O)(O)O`, for which the IC50 came to 23 µM. That is a double-digit micromolar value.
As for `COc1ccc(C(O)(P(=O)(O)O)P(=O)(O)O)cc1`, the figure is 40 µM.
As for `O=P(O)(O)C(O)(c1ccccc1)P(=O)(O)O`, the figure is 29 µM; as for `O=P(O)(O)C(O)(c1ccc(Oc2cccc3c2CCCC3)cc1)P(=O)(O)O`, 0.61 µM; as for `O=P(O)(O)C(O)(c1ccc(Cl)cc1)P(=O)(O)O`, 36 µM.
As for `CN(C)c1ccc(C(O)(P(=O)(O)O)P(=O)(O)O)cc1`, the figure is 140 µM; as for `O=P(O)(O)C(O)(Cc1ccccc1)P(=O)(O)O`, 38 µM; as for `CC(O)(P(=O)(O)O)P(=O)(O)O` [ETIDRONIC ACID], 110 µM.

For the origin of these results see ChEMBL document CHEMBL1126428, “Inhibitors of myo-inositol monophosphatase unrelated to the enzyme substrate” (Bioorg Med Chem Lett, 1992).
